# Measured values reported in PMC9500038, “A fungal tolerance trait and selective inhibitors proffer HMG-CoA reductase as a herbicide mode-of-action” (Nature Communications, 2022).
# pIC50: −log10 of the molar value. “Also recorded” adds a separate entry of the source.
# Legend:
# AtHMG1-L558T = target: T1, AtHMG1-L558T (Arabidopsis thaliana, UniProt P14891, L558T); assay: biochemical; type: biochemical; details: for AtHMG1-L558T activity in the presence of statin: 500 nM, in comparison to wild-type
# T1 construct: AtHMG1 (Uniprot P14891, At1g76490, residues 121–592); His6 (N); TEV cleavage site (N); made in house; host or cells: E. coli T7 SHuffle Express
# T1 sequence (P14891 121-592 L558T): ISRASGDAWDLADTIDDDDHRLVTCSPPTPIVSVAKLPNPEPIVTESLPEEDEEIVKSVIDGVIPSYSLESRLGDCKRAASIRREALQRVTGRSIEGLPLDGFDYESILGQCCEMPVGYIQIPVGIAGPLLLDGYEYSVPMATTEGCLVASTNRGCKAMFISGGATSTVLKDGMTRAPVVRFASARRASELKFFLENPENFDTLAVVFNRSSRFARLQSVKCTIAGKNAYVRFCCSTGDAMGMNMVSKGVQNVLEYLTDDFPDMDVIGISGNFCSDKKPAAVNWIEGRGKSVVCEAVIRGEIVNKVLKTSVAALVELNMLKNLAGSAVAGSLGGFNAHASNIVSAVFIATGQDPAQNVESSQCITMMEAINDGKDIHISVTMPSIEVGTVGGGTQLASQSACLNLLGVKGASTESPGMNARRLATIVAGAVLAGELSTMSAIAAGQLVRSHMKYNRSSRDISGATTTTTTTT
# Protocol: (§1) AtHMG1 described above and human HMGR (HsHMGCR, Uniprot P04035, residues 441–888, cloned as above) were purified as above, and activity was determined by spectrophotometric measurement of the decrease in absorbance at 340 nm that occurs with NADPH oxidation in the presence of substrate HMG-CoA (Sigma-Aldrich). Reactions were performed with an assay buffer consisting of 150 mM sodium chloride, 5 mM dithiothreitol, 50 mM HEPES pH 7.4 and 2% DMSO. For kinetics determinations, a final concentration of 150 nM enzyme was incubated at 37 °C in 300 μM NADPH and different concentrations of HMG-CoA. Non-linear regression analysis was performed with GraphPad Prism 9 by plotting the initial reaction rates, v0, interpolated from a standard curve against the substrate concentration. The Michaelis–Menten constant, Km, was determined by fitting the data with a Michaelis–Menten equation and values for kcat were calculated by dividing Vmax by the molar enzyme concentration. To calculate relative specific activity, 500 nM of test compounds were pre-incubated at 37 °C with enzyme and 300 μM NADPH for 15 min before adding HMG-CoA to 200 μM. Resultant values were background subtracted and normalised to the average of the no-inhibitor control. For IC50 determinations, the same protocol was used, but varying inhibitor concentrations. Rosuvastatin data were plotted with a four-parameter (WT), and normalised response (L558T) non-linear regression model and atorvastatin and analogues were plotted with a normalised response with variable slope non-linear regression model.
# AtHMG1 = target: T2, AtHMG1 (Arabidopsis thaliana, UniProt P14891); assay: biochemical; type: biochemical; details: for selectivity for AtHMG1 in vitro (dose-response): inhibition profiles AtHMG1 versus HsHMGCR; for pIC50: wild-type AtHMG1, in vitro
# T2 construct: AtHMG1 (Uniprot P14891, At1g76490, residues 121–592); His6 (N); TEV cleavage site (N); made in house; host or cells: E. coli T7 SHuffle Express
# T2 sequence (P14891 121-592): as the sequence (P14891 121-592 L558T) above, with T438L counted along it
# Protocol: An E. coli codon-optimised DNA sequence encoding the conserved […] region of AtHMG1 (Uniprot P14891, At1g76490, residues 121–592) was cloned into pQE30 (Qiagen) following an N-terminal His6-tag and tobacco etch virus cleavage site. The protein was expressed in the T7 SHuffle Express strain of E. coli (New England Biolabs) transformed with pREP4 (Qiagen) with the proteins expressed and purified as previously described. Briefly, cultures were grown in lysogeny broth containing 100 μg/mL ampicillin and 35 μg/mL kanamycin at 30 °C to an OD600 of 0.8–1.0. Cells were cooled to 16 °C before the expression was induced with 0.1 mM isopropyl β-D-1-thiogalactopyranoside. Following overnight culture, cells were harvested by centrifugation and lysed by ultrasonication in 100 mM HEPES (pH 7.5), 150 mM sodium chloride, 5 mM dithiothreitol, 0.1% Triton X-100. Lysed cells were then centrifuged (15,000×g) and the supernatant was incubated in 30 mL batches with Ni-NTA resin overnight at 4 °C. The resin was then washed with 50 mL of 100 mM HEPES (pH 7.5), 150 mM sodium chloride, 5 mM dithiothreitol followed by 50 mL of 100 mM HEPES (pH 7.5), 150 mM sodium chloride, 5 mM dithiothreitol, 20 mM imidazole. The protein was then eluted with 50 mL of 100 mM HEPES (pH 7.5), 150 mM sodium chloride, 5 mM dithiothreitol, 300 mM imidazole. Eluted protein was concentrated with a 30 kDa centrifugal filter unit (Millipore) and purified by size-exclusion chromatography (HiLoad 16/600 Superdex 200) in 100 mM HEPES (pH 7.5), 150 mM sodium chloride, 5 mM dithiothreitol. The protein was assessed for purity by SDS-PAGE, and protein concentration was determined by spectrophotometry.
# as §1
# HsHMGCR = target: T3, HsHMGCR (Homo sapiens, UniProt P04035); assay: In vitro HMGR assay (NADPH depletion), HsHMGCR; type: biochemical
# T3 construct: HsHMGCR, Uniprot P04035, residues 441–888; His6 (N); TEV cleavage site (N); made in house; host or cells: E. coli T7 SHuffle Express (by 'cloned as above ... purified as above')
# T3 sequence (P04035 441-888): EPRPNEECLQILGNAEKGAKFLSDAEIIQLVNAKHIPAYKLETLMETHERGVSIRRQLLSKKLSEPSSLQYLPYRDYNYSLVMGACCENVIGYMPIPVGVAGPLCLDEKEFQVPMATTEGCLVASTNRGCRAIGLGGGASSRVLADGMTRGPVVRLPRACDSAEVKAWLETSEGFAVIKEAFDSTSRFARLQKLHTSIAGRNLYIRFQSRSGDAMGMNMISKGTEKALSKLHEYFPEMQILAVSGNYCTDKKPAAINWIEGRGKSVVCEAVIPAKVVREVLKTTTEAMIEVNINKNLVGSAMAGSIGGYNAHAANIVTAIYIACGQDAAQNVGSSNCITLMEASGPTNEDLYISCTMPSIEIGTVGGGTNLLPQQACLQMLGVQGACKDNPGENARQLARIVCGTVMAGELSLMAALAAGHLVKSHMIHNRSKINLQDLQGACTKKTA
# Protocol: as §1, with “Rosuvastatin data were plotted with a four-parameter (WT), and normalised response (L558T) non-linear regression model and atorvastatin and analogues were plotted with a normalised response with variable slope non-linear regression model.” left out
# A. thaliana = assay: Herbicidal activity assay on soil, pre- and post-emergence; type: in vivo, Arabidopsis thaliana; details: for herbicidal activity: pre- and post-emergence
# Protocol: Approximately 30 seeds of A. thaliana (accession Col-0) or E. tef were sown in 63 × 63 × 59 mm pots of Irish peat (Bord na Móna Horticulture Ltd, Newbridge, Ireland). Seeds were incubated in the dark for 3 days at 4 °C to synchronise germination. A single pre-emergence treatment (day 0) was performed when these seeds were transferred to a growth room at 22 °C with a 16:8 h light:dark photoperiod and 60% relative humidity. Two post-emergence treatments were performed following emergence of the seedlings (day 1) at days 4 and 7. Plants were watered accordingly throughout the experiment to maintain adequate moisture and photographed on day 16. Treatments were conducted with rosuvastatin, simvastatin, fluvastatin, atorvastatin (AK Scientific), pravastatin (BOC Sciences), lovastatin (Sapphire Bioscience), mevastatin, pitavastatin (Focus Bioscience), glyphosate, RoundUp® and atorvastatin analogues (1–9). To treat, 0.5 mL of each compound in a final concentration of 2% dimethyl sulfoxide (DMSO) and 0.02% Brushwet (SST Dandenong, Australia) was pipetted onto seedlings. Full experimental details and characterisation of atorvastatin analogue 1–9 synthesis can be found in Supplementary Method 1 and Supplementary Figs. 7–62. Growth inhibition was quantified by detecting green pixels for healthy seedlings using ImageJ (National Institutes of Health, 1.53 v) and the ‘Threshold Colour’ plug-in with the following settings: hue 50–110, saturation 125–255, brightness 30–255[67]. Images were converted into 8-bit format, and pixels measured over the same area. Data were normalised to a negative control to provide percentage inhibition.
# [1] = tested on: 35 S::AtHMG1 A. thaliana lines; assay: In planta statin resistance assay, 35 S::AtHMG1 lines; type: in vivo; details: Arabidopsis thaliana; 19 T2 lines combined; read-out: IC50 growth inhibition, 35 S::AtHMG1 lines
# Protocol: (§2) DNA encoding the full-length AtHMG1 protein (Uniprot P14891, residues 1–592) and the corresponding L558T mutant were cloned into a derivative of the pMDC43 binary vector[75] to yield 35 S::AtHMG1 and 35 S::AtHMG1-L558T transgenes, respectively. These constructs were then introduced into Agrobacterium tumefaciens strain LBA4404 and separately used to transform A. thaliana by the floral dip method[76],[77]. Seeds (T0/1) of transformed plants were collected and surface sterilised using 600 µL 70% ethanol, 750 µL 100% ethanol and soaked in 800 µL 50% bleach for 8 min, before washing with 800 µL sterile water and resuspension with 0.1% agar. Selection was performed on 30 µg/mL hygromycin growth medium (1% agar, 1% glucose, 0.45% Murashige & Skoog salts with vitamins, 0.3% 2-(N-morpholino)-ethanesulfonic acid (MES) (v/v), pH 5.7) in a growth room at 22 °C with 16:8 h light:dark photoperiod and 60% relative humidity. Surviving plants were transferred to 63 ×63 × 59 mm pots of Irish peat and grown to maturity in the same growth conditions. Seeds from plants with an adequate seed yield were then sterilised and selected again as described above with 30 µg/mL hygromycin growth medium. […] Plates were sealed with porous tape and grown for a minimum of 10 days with the growth conditions described above. Plates were then imaged, and growth quantified using ImageJ as described above. […]
# [2] = tested on: wild-type (WT) A. thaliana; assay: In planta statin resistance assay, non-transformed WT; type: in vivo; details: Arabidopsis thaliana; growth medium, green pixels; read-out: IC50 growth inhibition, non-transformed WT
# Protocol: as §2
# [3] = tested on: 35 S::AtHMG1-L558T A. thaliana lines; type: in vivo, Arabidopsis thaliana
# Protocol: DNA encoding the full-length AtHMG1 protein (Uniprot P14891, residues 1–592) and the corresponding L558T mutant were cloned into a derivative of the pMDC43 binary vector[75] to yield 35 S::AtHMG1 and 35 S::AtHMG1-L558T transgenes, respectively. These constructs were then introduced into Agrobacterium tumefaciens strain LBA4404 and separately used to transform A. thaliana by the floral dip method[76],[77]. Seeds (T0/1) of transformed plants were collected and surface sterilised using 600 µL 70% ethanol, 750 µL 100% ethanol and soaked in 800 µL 50% bleach for 8 min, before washing with 800 µL sterile water and resuspension with 0.1% agar. Selection was performed on 30 µg/mL hygromycin growth medium (1% agar, 1% glucose, 0.45% Murashige & Skoog salts with vitamins, 0.3% 2-(N-morpholino)-ethanesulfonic acid (MES) (v/v), pH 5.7) in a growth room at 22 °C with 16:8 h light:dark photoperiod and 60% relative humidity. Surviving plants were transferred to 63 ×63 × 59 mm pots of Irish peat and grown to maturity in the same growth conditions. Seeds from plants with an adequate seed yield were then sterilised and selected again as described above with 30 µg/mL hygromycin growth medium. […] Plates were sealed with porous tape and grown for a minimum of 10 days with the growth conditions described above. Plates were then imaged, and growth quantified using ImageJ as described above. Total green pixels were normalised against negative controls for the respective lines (2% DMSO and water) to provide percentage inhibition. […] Growth inhibition at varying concentrations of hygromycin and rosuvastatin were plotted with a four-parameter non-linear regression model using GraphPad Prism 9.
smiles,measurement,setting,value
CC(C)c1c(C(=O)Nc2ccccc2)c(-c2ccccc2)c(-c2ccc(F)cc2)n1CC[C@@H](O)C[C@@H](O)CC(=O)O [atorvastatin],AtHMG1-L558T activity in the presence of statin,AtHMG1-L558T,retained activity
same,selectivity for AtHMG1 in vitro (dose-response),AtHMG1,not selective
O=C(O)C[C@H](O)C[C@H](O)CCn1c(-c2ccc(F)cc2)c(-c2ccccc2)c(C(=O)Nc2ccccc2)c1C1CCC1 [compound 7],specificity for AtHMG1 over HsHMGCR,"AtHMG1; in vitro, from IC50 dose-response curves",> 20 fold
same,selectivity in vitro for AtHMG1 over HsHMGCR,AtHMG1; initial screen at 500 nM,selective; also recorded: preference for AtHMG1 over HsHMGCR
same,pIC50,AtHMG1,7.49
same,pIC50,HsHMGCR,6.05
same,herbicidal activity,A. thaliana,retained herbicidal activity
O=C(O)C[C@H](O)C[C@H](O)CCn1c(-c2ccc(F)cc2)c(-c2ccccc2)c(C(=O)Nc2ccccc2)c1C1CCCC1 [compound 8],selectivity for AtHMG1 in vitro (dose-response),AtHMG1,not selective
CC(C)n1c(/C=C/C(O)CC(O)CC(=O)O)c(-c2ccc(F)cc2)c2ccccc21 (stereo not shown) [fluvastatin],AtHMG1-L558T activity in the presence of statin,AtHMG1-L558T,retained activity
CC[C@H](C)C(=O)O[C@H]1C[C@@H](C)C=C2C=C[C@H](C)[C@H](CC[C@@H]3C[C@@H](O)CC(=O)O3)[C@H]21 [lovastatin],AtHMG1-L558T activity in the presence of statin,AtHMG1-L558T,retained activity
CC[C@H](C)C(=O)O[C@H]1CCC=C2C=C[C@H](C)[C@H](CC[C@@H]3C[C@@H](O)CC(=O)O3)[C@H]21 [mevastatin],AtHMG1-L558T activity in the presence of statin,AtHMG1-L558T,retained activity
O=C(O)C[C@H](O)C[C@H](O)/C=C/c1c(C2CC2)nc2ccccc2c1-c1ccc(F)cc1 [pitavastatin],AtHMG1-L558T activity in the presence of statin,AtHMG1-L558T,retained activity
CC[C@H](C)C(=O)O[C@H]1C[C@H](O)C=C2C=C[C@H](C)[C@H](CC[C@@H](O)C[C@@H](O)CC(=O)O)[C@H]21 [pravastatin],AtHMG1-L558T activity in the presence of statin,AtHMG1-L558T,retained activity
CC(C)c1nc(N(C)S(C)(=O)=O)nc(-c2ccc(F)cc2)c1/C=C/[C@@H](O)C[C@@H](O)CC(=O)O [rosuvastatin],pIC50,AtHMG1-L558T,< 6.00
same,AtHMG1-L558T activity in the presence of statin,AtHMG1-L558T,retained activity
same,resistance of AtHMG1-L558T versus WT in vitro,AtHMG1-L558T; in vitro,> 20 fold
same,pIC50,AtHMG1,7.28
same,pIC50,[1],4.34
same,pIC50,[2],5.52
same,herbicidal activity,A. thaliana,most herbicidal statin
same,concentration lethal to A. thaliana,"A. thaliana; rosuvastatin without formulation beyond a wetting agent, Roundup formulated, same conditions",~ 15 μM
same,35 S::AtHMG1-L558T lines less sensitive to treatment than 35 S::AtHMG1 lines,"[3]; 80 µM versus 5 µM, compared to untreated WT",up to 16 fold
same,resistance of 35 S::AtHMG1-L558T lines versus 35 S::AtHMG1 lines,[3]; in planta,over sixfold more resistant
same,resistance of 35 S::AtHMG1-L558T lines versus non-transformed WT,[3]; in planta,more than 100 fold
CCC(C)(C)C(=O)O[C@H]1C[C@@H](C)C=C2C=C[C@H](C)[C@H](CC[C@@H]3C[C@@H](O)CC(=O)O3)[C@H]21 [simvastatin],AtHMG1-L558T activity in the presence of statin,AtHMG1-L558T,retained activity
